Tested on: Fibroblasts
Assay: One-tube duplex NASBA ratio of mitochondrial RNA and chromosomal DNA in fibroblasts cultured with ddC
Assay type: cell-based
Procedure: In this example, the NASBA nucleic acid amplification reactions for DNA target sequences were performed in a 20 μl reaction volume and contained: 40 mM Tris-pH 8.5, 70 mM KCl, 12 mM MgCl2, 5 mM dithiotreitol, 1 mM dNTPs (each), 2 mM rNTPs (each), 0.2 μM primer (each), 0.05 μM molecular beacon, 1.5 units restriction enzyme Msp I, 375 mM sorbitol, 0.105 μg/μl bovine serum albumin, 6.4 units AMV RT, 32 units T7 RNA polymerase, 0.08 units RNAse H and input nucleic acid. The complete mixture, except the enzymes sorbitol and bovine serum albumin, was, prior to adding the enzyme mixture, incubated at 37° C. for 25 minutes and subsequently heated to 95° C. for two minutes in order to denature the DNA and to allow the primers to anneal. After cooling the mixture to 41° C., the enzyme mixture was added. The amplification took place at 41° C. for 90 minutes in a fluorimeter (CytoFluor 2000) and the fluorescent signal was measured every minute (using the filter set 530/25 nm and 485/30 nm). To achieve quantification, a dilution series of target sequence for a particular primer set was amplified and the time points at which the reactions became positive (the time to positivity, TTP) were plotted against the input amounts of nucleic acid. This way a calibration curve was created that could be used to read TTP values of reactions with unknown amounts of input and deduce the input amount. […] After five days, the cells were harvested and analyzed for an amount of chromosomal DNA (primers SnrpD p1 and SnrpD2 p2 and probe SnrpD mb) with the described NASBA protocol in the chapter “Used ingredients and general methodology” and compared with the NASBA protocol as described in this example. […]
Different ratios of mitochondrial RNA target and chromosomal DNA target in a plasmid were analyzed in this example: 2×10^3 U1a DNA/5×10^4 Mt RNA, 2×10^3 U1a DNA/2.5×10^5 Mt RNA, 2×10^3 U1a DNA/5×10^5 Mt RNA, 2×10^3 U1a DNA/2.5×10^6 Mt RNA, 2×10^3 U1a DNA/5×10^6 Mt RNA, 2×10^3 U1a DNA/10^7 Mt RNA, 2×10^3 U1a DNA/2.5×10^7 Mt RNA molecules were included. […]

Nc1ccn([C@H]2CC[C@@H](CO)O2)c(=O)n1 [ddC]
amount of mitochondrial RNA in continued culture in the absence of ddC (ddC 30 μM eight weeks, then without ddC (week 10, 12, 14 and 16)): clear rebound
amount of mitochondrial RNA in continued culture in the presence of ddC (ddC 30 μM, after week eight, another eight weeks): remains very low
mitochondrial RNA of fibroblasts in the presence of ddC (ddC 30 μM, eight weeks, FIG. 23): lose their mitochondrial RNA
